From patent US12077503B2, “Substituted cyclic amides and their use as herbicides” (FMC CORPORATION, priority 2015, dated 2024)
Like-named read-outs stand apart in the source and are kept apart here.

Assays:
Assay type in all cases: in vivo
[1] = tested on: pigweed (Amaranthus retroflexus); test: Test A preemergence; conditions: Amaranthus retroflexus, pre-emergence, 240 h; for pest or weed control at 125 g/ha: 125 g ai/ha; for pest or weed control at 500 g/ha: 500 g ai/ha
[2] = tested on: Galium (catchweed bedstraw, Galium aparine); test: Test A postemergence; conditions: Galium, post-emergence, 240 h; for pest or weed control at 125 g/ha: 125 g ai/ha
Summary of the method: (§1)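 Seeded soil received test chemicals as a preemergence directed spray, and seedlings at one to two leaves, 2–10 cm tall, received them postemergence, in a non-phytotoxic, surfactant-containing solvent mixture. Pots were held in a greenhouse for approximately 10 d, then rated for injury from 0, no effect, to 100, complete control.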

[3] = tested on: Kochia (Kochia scoparia); test: Test A postemergence; conditions: Bassia scoparia, post-emergence, 240 h; for pest or weed control at 125 g/ha: 125 g ai/ha
Summary of the method: as §1

[4] = tested on: barnyardgrass (Echinochloa crus-galli); test: Test A postemergence; conditions: Echinochloa crus-galli, post-emergence, 240 h; for pest or weed control at 125 g/ha: 125 g ai/ha
Summary of the method: as §1

[5] = tested on: blackgrass (Alopecurus myosuroides); test: Test A postemergence; conditions: Alopecurus myosuroides, post-emergence, 240 h; for pest or weed control at 125 g/ha: 125 g ai/ha
Summary of the method: as §1

[6] = tested on: corn (Zea mays); test: Test A postemergence; conditions: Zea mays, post-emergence, 240 h
Summary of the method: as §1

[7] = tested on: giant foxtail (Setaria faberii); test: Test A postemergence; conditions: Setaria faberi, post-emergence, 240 h; for pest or weed control at 125 g/ha: 125 g ai/ha
Summary of the method: as §1

[8] = tested on: pigweed (Amaranthus retroflexus); test: Test A postemergence; conditions: Amaranthus retroflexus, post-emergence, 240 h; for pest or weed control at 125 g/ha: 125 g ai/ha
Summary of the method: as §1

[9] = tested on: ragweed (common ragweed, Ambrosia elatior); test: Test A postemergence; conditions: Ambrosia artemisiifolia, post-emergence, 240 h; for pest or weed control at 125 g/ha: 125 g ai/ha
Summary of the method: as §1

[10] = tested on: ryegrass, Italian (Italian ryegrass, Lolium multiflorum); test: Test A postemergence; conditions: Lolium multiflorum, post-emergence, 240 h; for pest or weed control at 125 g/ha: 125 g ai/ha
Summary of the method: as §1

[11] = tested on: wheat (Triticum aestivum); test: Test A postemergence; conditions: Triticum aestivum, post-emergence, 240 h; for plant injury at 125 g/ha: 125 g ai/ha
Summary of the method: as §1

[12] = tested on: barnyardgrass (Echinochloa crus-galli); test: Test B flooded paddy test; conditions: Echinochloa crus-galli, 250 g ai/ha, Flood, read-out: Barnyardgrass plant response rating
Summary of the method: (§2)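 Greenhouse paddy pots with 2-leaf stage plants received compound by direct addition to floodwater 3 cm deep, kept at that level. Scored visually at 13–15 d versus controls (0 no effect; 100 complete control).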

[13] = tested on: ducksalad (Heteranthera limosa); test: Test B flooded paddy test; conditions: Heteranthera limosa, 250 g ai/ha, Flood, read-out: Ducksalad plant response rating
Summary of the method: as §2

[14] = tested on: rice (Oryra sativa); test: Test B flooded paddy test; conditions: Oryza sativa, 250 g ai/ha, Flood, read-out: Rice plant response rating
Summary of the method: as §2

[15] = tested on: sedge, umbrella (small-flower umbrella sedge, Cyperus difformis); test: Test B flooded paddy test; conditions: Cyperus difformis, 250 g ai/ha, Flood, read-out: Sedge, Umbrella plant response rating
Summary of the method: as §2

[16] = 0 to 100 scale where 0 is no effect and 100 is complete control
[17] = scale of 0 to 100 where 0 is no effect and 100 is complete control

O=C1NC[C@H](c2ccc(F)c(OC(F)(F)C(F)(F)Br)c2)[C@H]1C(=O)Nc1ccccc1F [Compound 1134]
pest or weed control at 125 g/ha ([1]; preemergence, 0 to 100 scale where 0 is no effect and 100 is complete control, approx. 10 d, read-out: Pigweed plant response rating): 0%
pest or weed control at 500 g/ha ([1]; preemergence, 0 to 100 scale where 0 is no effect and 100 is complete control, read-out: Pigweed plant response rating): 30%
pest or weed control at 125 g/ha ([2]; postemergence, visual injury on 0 to 100 scale (0 no effect, 100 complete control), approx. 10 d, read-out: Galium plant response rating): 20%
pest or weed control at 500 g/ha ([2]; 500 g ai/ha, postemergence, 0 to 100 scale, 0 is no effect, 100 is complete control, read-out: Galium plant response rating): 70%
pest or weed control at 125 g/ha ([3]; postemergence, visual injury on 0 to 100 scale (0 no effect, 100 complete control), approx. 10 d, read-out: Kochia plant response rating): 0%
pest or weed control at 500 g/ha ([3]; 500 g ai/ha, postemergence, 0 to 100 scale, 0 is no effect, 100 is complete control, read-out: Kochia plant response rating): 30%
pest or weed control at 125 g/ha ([4]; postemergence, visual injury on 0 to 100 scale (0 no effect, 100 complete control), approx. 10 d, read-out: Barnyardgrass plant response rating): 60%
pest or weed control at 500 g/ha ([4]; 500 g ai/ha, postemergence, 0 to 100 scale, 0 is no effect, 100 is complete control, read-out: Barnyardgrass plant response rating): 80%
pest or weed control at 125 g/ha ([5]; postemergence, visual injury on 0 to 100 scale (0 no effect, 100 complete control), approx. 10 d, read-out: Blackgrass plant response rating): 20%
pest or weed control at 500 g/ha ([5]; 500 g ai/ha, postemergence, 0 to 100 scale, 0 is no effect, 100 is complete control, read-out: Blackgrass plant response rating): 50%
plant injury at 125 g/ha ([6]; 125 g ai/ha, postemergence, visual injury on 0 to 100 scale (0 no effect, 100 complete control), approx. 10 d, read-out: Corn plant response rating): 20%
plant injury at 500 g/ha ([6]; 500 g ai/ha, postemergence, 0 to 100 scale, 0 is no effect, 100 is complete control, read-out: Corn plant response rating): 20%
pest or weed control at 125 g/ha ([7]; postemergence, visual injury on 0 to 100 scale (0 no effect, 100 complete control), approx. 10 d, read-out: Foxtail, Giant plant response rating): 30%
pest or weed control at 500 g/ha ([7]; 500 g ai/ha, postemergence, 0 to 100 scale, 0 is no effect, 100 is complete control, read-out: Foxtail, Giant plant response rating): 80%
pest or weed control at 125 g/ha ([8]; postemergence, visual injury on 0 to 100 scale (0 no effect, 100 complete control), approx. 10 d, read-out: Pigweed plant response rating): 0%
pest or weed control at 500 g/ha ([8]; 500 g ai/ha, postemergence, 0 to 100 scale, 0 is no effect, 100 is complete control, read-out: Pigweed plant response rating): 20%
pest or weed control at 125 g/ha ([9]; postemergence, visual injury on 0 to 100 scale (0 no effect, 100 complete control), approx. 10 d, read-out: Ragweed plant response rating): 0%
pest or weed control at 500 g/ha ([9]; 500 g ai/ha, postemergence, 0 to 100 scale, 0 is no effect, 100 is complete control, read-out: Ragweed plant response rating): 30%
pest or weed control at 125 g/ha ([10]; postemergence, visual injury on 0 to 100 scale (0 no effect, 100 complete control), approx. 10 d, read-out: Ryegrass, Italian plant response rating): 20%
pest or weed control at 500 g/ha ([10]; 500 g ai/ha, postemergence, 0 to 100 scale, 0 is no effect, 100 is complete control, read-out: Ryegrass, Italian plant response rating): 20%
plant injury at 125 g/ha ([11]; postemergence, visual injury on 0 to 100 scale (0 no effect, 100 complete control), approx. 10 d, read-out: Wheat plant response rating): 0%
plant injury at 500 g/ha ([11]; 500 g ai/ha, postemergence, 0 to 100 scale, 0 is no effect, 100 is complete control, read-out: Wheat plant response rating): 20%
pest or weed control at 250 g/ha [12, 16]: 0%
pest or weed control at 250 g/ha [13, 16]: 0%
pest or weed control at 250 g/ha [14, 16]: 0%
pest or weed control at 250 g/ha [15, 16]: 0%

CC(C)Oc1ccc([C@H]2CN(C)C(=O)[C@@H]2C(=O)Nc2ccc(F)cc2F)cc1 [Compound 954]
pest or weed control at 125 g/ha ([1]; Preemergence, visual injury rating after approximately 10 d, read-out: Pigweed plant response rating (0 to 100 scale, 0 is no effect, 100 is complete control)): 0%
pest or weed control at 500 g/ha ([1]; preemergence, visual injury rating about 10 d after treatment, 0 to 100 scale (0 no effect, 100 complete control), read-out: Pigweed plant response rating): 0%
pest or weed control at 125 g/ha ([2]; Postemergence, visual injury after approximately 10 d, 0 to 100 scale where 0 is no effect and 100 is complete control, read-out: Plant response rating, Galium): 0%
pest or weed control at 125 g/ha ([3]; Postemergence, visual injury after approximately 10 d, 0 to 100 scale where 0 is no effect and 100 is complete control, read-out: Plant response rating, Kochia): 0%
pest or weed control at 125 g/ha ([4]; Postemergence, visual injury after approximately 10 d, 0 to 100 scale where 0 is no effect and 100 is complete control, read-out: Plant response rating, Barnyardgrass): 60%
pest or weed control at 125 g/ha ([5]; Postemergence, visual injury after approximately 10 d, 0 to 100 scale where 0 is no effect and 100 is complete control, read-out: Plant response rating, Blackgrass): 0%
Corn plant response rating (crop injury, 0 = no effect, 100 = complete kill) at 125 g/ha ([6]; 125 g ai/ha, Postemergence, visual injury after approximately 10 d, 0 to 100 scale where 0 is no effect and 100 is complete control): 0%
pest or weed control at 125 g/ha ([7]; Postemergence, visual injury after approximately 10 d, 0 to 100 scale where 0 is no effect and 100 is complete control, read-out: Plant response rating, Foxtail, Giant): 60%
pest or weed control at 125 g/ha ([8]; Postemergence, visual injury after approximately 10 d, 0 to 100 scale where 0 is no effect and 100 is complete control, read-out: Plant response rating, Pigweed): 0%
pest or weed control at 125 g/ha ([9]; Postemergence, visual injury after approximately 10 d, 0 to 100 scale where 0 is no effect and 100 is complete control, read-out: Plant response rating, Ragweed): 0%
pest or weed control at 125 g/ha ([10]; Postemergence, visual injury after approximately 10 d, 0 to 100 scale where 0 is no effect and 100 is complete control, read-out: Plant response rating, Ryegrass, Italian): 0%
plant injury at 125 g/ha ([11]; Postemergence, visual injury after approximately 10 d, 0 to 100 scale where 0 is no effect and 100 is complete control, read-out: Plant response rating, Wheat): 0%
pest or weed control at 250 g/ha [12, 17]: 0%
pest or weed control at 250 g/ha [13, 17]: 35%
pest or weed control at 250 g/ha [14, 17]: 0%
pest or weed control at 250 g/ha [15, 17]: 0%
